Measurements as given in ChEMBL document CHEMBL4715829, “Heterodimeric Rifampicin-Tobramycin conjugates break intrinsic resistance of Pseudomonas aeruginosa to doxycycline and chloramphenicol in vitro and in a Galleria mellonella in vivo model” (Eur J Med Chem, 2019).
Converted amounts (≈) assume the structure as drawn.

Key:
Format in all cases: functional
Pseudomonas aeruginosa [1] = test: Antibacterial activity against Pseudomonas aeruginosa 260-97103 assessed as fractional inhibitory concentration index in presence of doxycycline incubated for 18 hrs by broth microdilution assay
Escherichia coli = test: Antibacterial activity against Escherichia coli CAN-ICU 63074 (AMK 32) assessed as reduction in bacterial growth incubated for 18 hrs by broth microdilution assay
Pseudomonas aeruginosa [2] = test: Antibacterial activity against Pseudomonas aeruginosa PAO1 assessed as reduction in bacterial growth by measuring trimethoprim MIC at <=10 uM in presence of trimethoprim incubated for 18 hrs by broth microdilution assay based checkerboard assay (reference value: 64 microg/ml); conditions: dose microM <=10
Pseudomonas aeruginosa [3] = test: Antibacterial activity against Pseudomonas aeruginosa PAO1 assessed as fractional inhibitory concentration index in presence of Chloramphenicol incubated for 18 hrs by broth microdilution assay based checkerboard assay
Pseudomonas aeruginosa [4] = test: Antibacterial activity against Pseudomonas aeruginosa PAO1 assessed as reduction in bacterial growth by measuring rifampicin MIC at <=[…] uM in presence of rifampicin incubated for 18 hrs by broth microdilution assay based checkerboard assay (reference value: […] microg/ml); conditions: dose microM <=10
Pseudomonas aeruginosa [5] = test: Antibacterial activity against Pseudomonas aeruginosa 114228 assessed as reduction in bacterial growth incubated for 18 hrs by broth microdilution assay
Pseudomonas aeruginosa [6] = test: Antibacterial activity against Pseudomonas aeruginosa PAO1 assessed as fractional inhibitory concentration index in presence of Tobramycin incubated for 18 hrs by broth microdilution assay based checkerboard assay
Pseudomonas aeruginosa [7] = test: Antibacterial activity against Pseudomonas aeruginosa 91433 assessed as reduction in bacterial growth incubated for 18 hrs by broth microdilution assay
Pseudomonas aeruginosa [8] = test: Antibacterial activity against Pseudomonas aeruginosa PAO1 assessed as fractional inhibitory concentration index in presence of Colistin incubated for 18 hrs by broth microdilution assay based checkerboard assay
Enterococcus faecalis = test: Antibacterial activity against Enterococcus faecalis ATCC 29212 assessed as reduction in bacterial growth incubated for 18 hrs by broth microdilution assay
Pseudomonas aeruginosa [9] = test: Antibacterial activity against Pseudomonas aeruginosa PAO1 assessed as reduction in bacterial growth by measuring moxifloxacin MIC at <=10 uM in presence of moxifloxacin incubated for 18 hrs by broth microdilution assay based checkerboard assay (reference value: 1 microg/ml); conditions: dose microM <=10
Pseudomonas aeruginosa [10] = test: Antibacterial activity against Pseudomonas aeruginosa PAO1 assessed as fractional inhibitory concentration index in presence of Minocycline incubated for 18 hrs by broth microdilution assay based checkerboard assay
Pseudomonas aeruginosa [11] = test: Antibacterial activity against Pseudomonas aeruginosa 260-97103 assessed as reduction in bacterial growth incubated for 18 hrs by broth microdilution assay
Pseudomonas aeruginosa [12] = test: Antibacterial activity against Pseudomonas aeruginosa PAO1 assessed as reduction in bacterial growth by measuring pleuromutilin MIC at <=10 uM in presence of pleuromutilin incubated for 18 hrs by broth microdilution assay based checkerboard assay (reference value: 512 microg/ml); conditions: dose microM <=10
Pseudomonas aeruginosa [13] = test: Antibacterial activity against Pseudomonas aeruginosa PAO1 assessed as fractional inhibitory concentration index in presence of Vancomycin incubated for 18 hrs by broth microdilution assay based checkerboard assay
Pseudomonas aeruginosa [14] = test: Antibacterial activity against gentamicin-resistant Pseudomonas aeruginosa CAN-ICU 62308 assessed as reduction in bacterial growth incubated for 18 hrs by broth microdilution assay
Pseudomonas aeruginosa [15] = test: Antibacterial activity against Pseudomonas aeruginosa 259-96918 assessed as reduction in bacterial growth incubated for 18 hrs by broth microdilution assay
Pseudomonas aeruginosa [16] = test: Antibacterial activity against Pseudomonas aeruginosa PAO1 assessed as fractional inhibitory concentration index in presence of Fosfomycin incubated for 18 hrs by broth microdilution assay based checkerboard assay
Pseudomonas aeruginosa [17] = test: Antibacterial activity against Pseudomonas aeruginosa PAO1 assessed as reduction in bacterial growth by measuring novobiocin MIC at <=10 uM in presence of novobiocin incubated for 18 hrs by broth microdilution assay based checkerboard assay (reference value: 512 microg/ml); conditions: dose microM <=10
Pseudomonas aeruginosa [18] = test: Antibacterial activity against Pseudomonas aeruginosa 100036 assessed as fractional inhibitory concentration index in presence of doxycycline incubated for 18 hrs by broth microdilution assay
Pseudomonas aeruginosa [19] = test: Antibacterial activity against Pseudomonas aeruginosa PAO1 assessed as reduction in bacterial growth by measuring minocycline MIC at <=10 uM in presence of minocycline incubated for 18 hrs by broth microdilution assay based checkerboard assay (reference value: 8 microg/ml); conditions: dose microM <=10
Pseudomonas aeruginosa [20] = test: Antibacterial activity against Pseudomonas aeruginosa 101243 assessed as fractional inhibitory concentration index in presence of doxycycline incubated for 18 hrs by broth microdilution assay
Pseudomonas aeruginosa [21] = test: Antibacterial activity against Pseudomonas aeruginosa PAO1 assessed as fractional inhibitory concentration index in presence of Meropenem incubated for 18 hrs by broth microdilution assay based checkerboard assay
Streptococcus pneumoniae = test: Antibacterial activity against Streptococcus pneumoniae ATCC 49619 assessed as reduction in bacterial growth incubated for 18 hrs by broth microdilution assay
Staphylococcus aureus = test: Antibacterial activity against methicillin-resistance Staphylococcus aureus ATCC 33592 assessed as reduction in bacterial growth incubated for 18 hrs by broth microdilution assay
Pseudomonas aeruginosa [22] = test: Antibacterial activity against Pseudomonas aeruginosa PAO1 assessed as reduction in bacterial growth by measuring vancomycin MIC at <=10 uM in presence of vancomycin incubated for 18 hrs by broth microdilution assay based checkerboard assay (reference value: 256 microg/ml); conditions: dose microM <=10
Pseudomonas aeruginosa [23] = test: Antibacterial activity against Pseudomonas aeruginosa 264-101354 assessed as fractional inhibitory concentration index in presence of doxycycline incubated for 18 hrs by broth microdilution assay
Pseudomonas aeruginosa [24] = test: Antibacterial activity against Pseudomonas aeruginosa PAO1 assessed as reduction in bacterial growth by measuring colistin MIC at <=10 uM in presence of colistin incubated for 18 hrs by broth microdilution assay based checkerboard assay (reference value: 1 microg/ml); conditions: dose microM <=10
Pseudomonas aeruginosa [25] = test: Antibacterial activity against Pseudomonas aeruginosa 264-101354 assessed as fractional inhibitory concentration index in presence of chloramphenicol incubated for 18 hrs by broth microdilution assay
Pseudomonas aeruginosa [26] = test: Antibacterial activity against Pseudomonas aeruginosa 100036 assessed as reduction in bacterial growth incubated for 18 hrs by broth microdilution assay
Pseudomonas aeruginosa [27] = test: Antibacterial activity against Pseudomonas aeruginosa 262-101856 assessed as fractional inhibitory concentration index in presence of doxycycline incubated for 18 hrs by broth microdilution assay
Acinetobacter baumannii = test: Antibacterial activity against Acinetobacter baumannii CAN-ICU 63169 assessed as reduction in bacterial growth incubated for 18 hrs by broth microdilution assay
Pseudomonas aeruginosa [28] = test: Antibacterial activity against Pseudomonas aeruginosa PAO1 assessed as fractional inhibitory concentration index in presence of Doxycycline incubated for 18 hrs by broth microdilution assay based checkerboard assay
Pseudomonas aeruginosa [29] = test: Antibacterial activity against Pseudomonas aeruginosa PAO1 assessed as fractional inhibitory concentration index in presence of Tigecycline incubated for 18 hrs by broth microdilution assay based checkerboard assay
Pseudomonas aeruginosa [30] = test: Antibacterial activity against Pseudomonas aeruginosa PAO1 assessed as reduction in bacterial growth by measuring ceftazidime MIC at <=10 uM in presence of ceftazidime incubated for 18 hrs by broth microdilution assay based checkerboard assay (reference value: 2 microg/ml); conditions: dose microM <=10
Pseudomonas aeruginosa [31] = test: Antibacterial activity against Pseudomonas aeruginosa 101243 assessed as reduction in bacterial growth incubated for 18 hrs by broth microdilution assay

| Compound | fractional inhibitory concentration index (FICI) (Pseudomonas aeruginosa [1]) | MIC (Escherichia coli) [µg/mL] | MIC (Pseudomonas aeruginosa [2]) [µg/mL] | fractional inhibitory concentration index (FICI) (Pseudomonas aeruginosa [3]) | MIC (Pseudomonas aeruginosa [4]) [µg/mL] | MIC (Pseudomonas aeruginosa [5]) [µg/mL] | fractional inhibitory concentration index (FICI) (Pseudomonas aeruginosa [6]) | MIC (Pseudomonas aeruginosa [7]) [µg/mL] | MIC (Enterococcus faecalis) [µg/mL] | MIC (Pseudomonas aeruginosa [11]) [µg/mL] | MIC (Pseudomonas aeruginosa [14]) [µg/mL] | MIC (Pseudomonas aeruginosa [15]) [µg/mL] | fractional inhibitory concentration index (FICI) (Pseudomonas aeruginosa [20]) | MIC (Streptococcus pneumoniae) [µg/mL] | MIC (Staphylococcus aureus) [µg/mL] | fractional inhibitory concentration index (FICI) (Pseudomonas aeruginosa [25]) | MIC (Pseudomonas aeruginosa [26]) [µg/mL] | fractional inhibitory concentration index (FICI) (Pseudomonas aeruginosa [27]) | MIC (Acinetobacter baumannii) [µg/mL] | MIC (Pseudomonas aeruginosa [31]) [µg/mL] | also measured |
| --- | --- | --- | --- | --- | --- | --- | --- | --- | --- | --- | --- | --- | --- | --- | --- | --- | --- | --- | --- | --- | --- |
| CO[C@H]1/C=C/O[C@@]2(C)Oc3c(C)c(O)c4c(O)c(c(/C=N/N5CCN(Cc6cn(CCCCCCO[C@@H]7[C@@H](O[C@H]8O[C@H](CO)[C@@H](O)[C@H](N)[C@H]8O)[C@H](N)C[C@H](N)[C@H]7O[C@H]7O[C@H](CN)[C@@H](O)C[C@H]7N)nn6)CC5)c(O)c4c3C2=O)NC(=O)/C(C)=C\C=C\[C@H](C)[C@H](O)[C@@H](C)[C@@H](O)[C@@H](C)[C@H](OC(C)=O)[C@@H]1C.Cl.Cl.Cl.Cl.Cl | <0.133 | > 32 | 32 | 0.06 | 4 | > 128 | 1.03 | > 128 | > 32 | > 128 | > 32 | > 128 | 0.125 | 2 | > 32 | 0.063 | 256 | <0.07 | > 32 | ≥ 256 | fractional inhibitory concentration index (FICI) (Pseudomonas aeruginosa [8]): 0.53; MIC (Pseudomonas aeruginosa [9]): 0.5 µg/mL; fractional inhibitory concentration index (FICI) (Pseudomonas aeruginosa [10]): 0.28; MIC (Pseudomonas aeruginosa [12]): 128 µg/mL; fractional inhibitory concentration index (FICI) (Pseudomonas aeruginosa [13]): 1.03; fractional inhibitory concentration index (FICI) (Pseudomonas aeruginosa [16]): 0.15; MIC (Pseudomonas aeruginosa [17]): 128 µg/mL; fractional inhibitory concentration index (FICI) (Pseudomonas aeruginosa [18]): 0.078; MIC (Pseudomonas aeruginosa [19]): 2 µg/mL; fractional inhibitory concentration index (FICI) (Pseudomonas aeruginosa [21]): 1.03; MIC (Pseudomonas aeruginosa [22]): 256 µg/mL; fractional inhibitory concentration index (FICI) (Pseudomonas aeruginosa [23]): 0.064; MIC (Pseudomonas aeruginosa [24]): 0.5 µg/mL; fractional inhibitory concentration index (FICI) (Pseudomonas aeruginosa [28]): 0.06; fractional inhibitory concentration index (FICI) (Pseudomonas aeruginosa [29]): 0.51; MIC (Pseudomonas aeruginosa [30]): 2 µg/mL |
| NC[C@H]1O[C@H](O[C@H]2[C@H](O)[C@@H](O[C@H]3O[C@H](CO)[C@@H](O)[C@H](N)[C@H]3O)[C@H](N)C[C@@H]2N)[C@H](N)C[C@@H]1O [TOBRAMYCIN] | 1.5 | 8 (≈ 17.1 µM) | – | – | – | 8 (≈ 17.1 µM) | – | 16 (≈ 34.2 µM) | 8 (≈ 17.1 µM) | 32 (≈ 68.4 µM) | 16 (≈ 34.2 µM) | 256 (≈ 548 µM) | 1.5 | 2 (≈ 4.28 µM) | 0.5 (≈ 1.07 µM) | 1 | 128 (≈ 274 µM) | <=1.5 | 32 (≈ 68.4 µM) | 128 (≈ 274 µM) | fractional inhibitory concentration index (FICI) (Pseudomonas aeruginosa [18]): 1.5; fractional inhibitory concentration index (FICI) (Pseudomonas aeruginosa [23]): 1.5 |
| CO[C@H]1/C=C/O[C@@]2(C)Oc3c(C)c(O)c4c(O)c(c(/C=N/N5CCN(Cc6cn(CCCCO[C@@H]7[C@@H](O[C@H]8O[C@H](CO)[C@@H](O)[C@H](N)[C@H]8O)[C@H](N)C[C@H](N)[C@H]7O[C@H]7O[C@H](CN)[C@@H](O)C[C@H]7N)nn6)CC5)c(O)c4c3C2=O)NC(=O)/C(C)=C\C=C\[C@H](C)[C@H](O)[C@@H](C)[C@@H](O)[C@@H](C)[C@H](OC(C)=O)[C@@H]1C.O=C(O)C(F)(F)F.O=C(O)C(F)(F)F.O=C(O)C(F)(F)F.O=C(O)C(F)(F)F.O=C(O)C(F)(F)F | – | > 32 | 64 | 0.28 | 4 | > 128 | 1.03 | > 128 | > 32 | > 128 | > 32 | > 128 | – | 1 | > 32 | – | > 256 | – | > 32 | 256 | fractional inhibitory concentration index (FICI) (Pseudomonas aeruginosa [8]): 0.53; MIC (Pseudomonas aeruginosa [9]): 1 µg/mL; fractional inhibitory concentration index (FICI) (Pseudomonas aeruginosa [10]): 0.26; MIC (Pseudomonas aeruginosa [12]): 512 µg/mL; fractional inhibitory concentration index (FICI) (Pseudomonas aeruginosa [13]): 1.03; fractional inhibitory concentration index (FICI) (Pseudomonas aeruginosa [16]): 1.03; MIC (Pseudomonas aeruginosa [17]): 256 µg/mL; MIC (Pseudomonas aeruginosa [19]): 2 µg/mL; fractional inhibitory concentration index (FICI) (Pseudomonas aeruginosa [21]): 1.03; MIC (Pseudomonas aeruginosa [22]): 256 µg/mL; MIC (Pseudomonas aeruginosa [24]): 0.5 µg/mL; fractional inhibitory concentration index (FICI) (Pseudomonas aeruginosa [28]): 0.09; fractional inhibitory concentration index (FICI) (Pseudomonas aeruginosa [29]): 0.51; MIC (Pseudomonas aeruginosa [30]): 2 µg/mL |
| CO[C@H]1/C=C/O[C@@]2(C)Oc3c(C)c(O)c4c(O)c(c(/C=N/N5CCN(C)CC5)c(O)c4c3C2=O)NC(=O)/C(C)=C\C=C\[C@H](C)[C@H](O)[C@@H](C)[C@@H](O)[C@@H](C)[C@H](OC(C)=O)[C@@H]1C [RIFAMPIN] | – | 16 (≈ 19.4 µM) | – | – | – | 16 (≈ 19.4 µM) | – | 16 (≈ 19.4 µM) | 1 (≈ 1.22 µM) | 16 (≈ 19.4 µM) | 32 (≈ 38.9 µM) | 16 (≈ 19.4 µM) | 1.5 | ≤ 0.25 | > 128 | 1.5 | 32 (≈ 38.9 µM) | 1.5 | 8 (≈ 9.72 µM) | 4 (≈ 4.86 µM) | – |
